The values that follow come from a melting point compilation (Tetko et al.; mined from patent text by program, amines drawn as free bases though some values may be those of a salt).

The structures appear in SMILES notation.

For orientation: melting point means the temperature, or range, at which the solid turns liquid.

For `COc1ccc2c3c(c4cc(OC)c(OC)cc4c2c1)C[C@H](CO)N(C(=O)OC(C)(C)C)C3`, the melting point was in the range of 105 to 107 °C.

With `CC(C)Cc1ccc(CCc2cc3c(s2)NC(=S)CN=C3c2ccccc2Cl)cc1`, the melting point is 180 to 182 °C.

For the compound `O=C(O)c1cn2c(ccc3ccc(Cl)cc32)n1`, the melting point was 288 to 289 °C.

In turn, `Fc1cc(F)c2c(c1)CC(n1cc[nH]c1=S)CC2` (centres undefined) registered a melting point of 250 to 251 °C.

In turn, `CC(O)c1cc(N)ccc1N` (centres undefined) registered a melting point of 124 °C.

For `CS(=O)(=O)c1ccc(C(O)C(CF)NC(=O)C(F)F)cc1` (centres undefined), the melting point lay in the range of 141 to 142 °C.

With `CN1CCN(CC2=NC(NC(=O)Nc3cccc(C#N)c3)C(=O)N(CC(=O)N(C)c3ccccc3)c3ccccc32)CC1` (centres undefined), the melting point lay within 152 to 155 °C.

For the compound `N#Cc1cc(S(=O)(=O)c2ccc([N+](=O)[O-])cc2)cc(Br)n1`, the melting point is 158 to 160 °C.

With `Nc1nc2cc3c(cc2[nH]1)OCO3`, the melting point lay within 230 to 243 °C.

Compound `C=CCc1c(OCC=Cc2ccccc2)ccc2c1CCC(=O)N2CC=Cc1ccccc1` had a melting point of 66 to 68 °C.

`CCOC(=O)c1c(C)ccc(Cc2c[nH]cn2)c1O`: the melting point was 101 to 103 °C.

`OCCn1cc(C(CC2CCCCCC2)=NO)c2c(Cl)cccc21` showed a melting point of 120 to 123 °C.

In turn, `CCOC(=O)C=CC(=O)Nc1ccc(Cl)cc1C(=O)c1ccccc1Cl` yielded a melting point of 113 to 114 °C.

Turning to `CC(C)N(Sc1nc2ccccc2s1)C(C)C`, the melting point was 57 to 59 °C.

Turning to `COc1ccc2c(c1)cc(C(=O)O)n2-c1ccccc1`, the melting point was 197 to 204 °C.

On to `CS(=O)(=O)c1ccc(-c2nn3ccoc3c2-c2ccc(F)cc2)cc1`, for which the melting point was 67 to 70 °C.

As for `CSc1cc(CCC(=O)O)cc(-c2nc(=O)c3ccccc3s2)n1`, the melting point amounted to 236 °C.

With `C#CCN1CC[C@H](O)C1=O`, the melting point was 89 to 90 °C.

Consider `COc1ccc(N2CCN(c3c(C)c(C)c4c(c3C)C(N3CCCC3)C(C)(C)O4)CC2)cc1` (centres undefined), for which the melting point lay in the range of 124 to 126 °C.

Compound `CCOC(=O)C(=CNc1cccc(C2=NC(C)(C)Cc3cc(OC)c4c(c32)CC(C)(C)O4)c1)C(=O)OCC` registered a melting point of 115 to 117 °C.

With `Cc1ccc(Cn2ncc(-c3ccc(S(C)(=O)=O)cc3)c(-c3ccc(F)cc3)c2=O)s1`, the melting point lay within 172 to 175 °C.

For `CCCCCCCC(=O)N(C)Cc1cccc(-c2ccc(CCC(=O)O)cc2)c1`, the melting point is 91 °C.

Compound `COc1cc(C(=O)NCC2NC(C)Cc3ccccc32)cc(OC)c1OC` (centres undefined) returned a melting point of 162 to 164 °C.

`CCNCC1CCN(c2c(F)cc3c(=O)c(C(=O)O)cn(C4CC4)c3c2C(F)(F)F)C1` (centres undefined) had a melting point of 239 to 241 °C.

In turn, `C[Si](C)(C)c1c(C#N)c(C(F)(F)F)nn1-c1c(Cl)cc(C(F)(F)F)cc1Cl` gave a melting point of 108 to 110 °C.

In turn, `N#CC(NCCc1cccs1)c1ccccc1Cl` (centres undefined) displayed a melting point of 40 to 41 °C.

Compound `O=c1c(-c2ccccc2)c(CNc2ncnc3[nH]cnc23)oc2ccc(Br)cc12` returned a melting point of 151 to 154 °C.

`CCc1ccc2c(c1)C=Cc1cc(C)ccc1C2c1cn(Cc2ccc(C(=O)Nc3nnn[nH]3)o2)c(=O)[nH]c1=S` (centres undefined): the melting point turned out to be 260 °C.

As for `Cc1c(F)cccc1Cc1c(-c2ccccc2)c2cccnn2c1C(=O)N1CCNCC1`, the melting point lay within 140 to 142 °C.

Consider `CCOC(=O)Cc1nccc(NC=O)n1`, for which the melting point lay in the range of 80 to 93 °C.

In turn, `COc1ccccc1N1CCN(CCCCNc2cc(Cl)nnc2OC)CC1` yielded a melting point of 139 to 150 °C.

Compound `CCCCCCCCCCCCCC(=O)O[C@H](CCCCCCCCCCC)CC(=O)O` gave a melting point of 28 to 29 °C.

In turn, `CC(C)CCSCC[C@H](O)[C@@H](N)CC(C)C` yielded a melting point of 64 to 65 °C.

In the case of `COc1nc2ccccc2nc1NC(=O)N1CCC(c2ccccc2)(c2ccccc2)CC1`, the melting point is 202 to 204 °C.

On to `CCOC(=O)CCC(C)C1CCC2C3C(O)C(CC)C4CC(O)CCC4(C)C3CCC12C` (centres undefined), for which the melting point lay within 55 to 57 °C.

In the case of `COC(=O)C=CC=CCS(=O)c1ccccc1` (centres undefined), the melting point was 82 to 84 °C.

Consider `O=Cc1ccc(-c2ccccc2Cl)cc1`, for which the melting point lay in the range of 124 to 125 °C.

In the case of `COc1ccc([N+](=O)[O-])c2c1OCC(C(=O)Nc1ccc(N3CCOCC3)cc1)C2` (centres undefined), the melting point fell in the range of 238 to 240 °C.

For the compound `COc1cc(-c2cccs2)c(OC)c2c(OC)cc(-c3cccs3)c(OC)c12`, the melting point lay in the range of 234 to 237 °C.

With `O=c1[nH]c2cc(Cl)c(Cl)cc2n1CCCN1CCN(C(c2ccccc2)c2ccccc2)CC1`, the melting point worked out at 214 °C.

As for `O=S1(=O)c2cccc3cccc(c23)N1CCCCN1CCN(c2ccc(O)cc2)CC1`, the melting point is 195 °C.

With `CC(=O)N1CCC(n2c(=O)[nH]c3ccccc32)CC1`, the melting point is 212 to 214 °C.

`COc1ccccc1N1CCN(CCCOc2ccc(-c3cn4cccnc4n3)cc2)CC1`: the melting point was 156 to 158 °C.

As to `CC(O)(CCCCl)c1ccc(-c2cccc(F)c2)cc1` (centres undefined), the melting point lay in the range of 70 to 72 °C.

As for `O=c1[nH]c2cc3[nH]c(-c4ccnnc4)nc3cc2o1`, the melting point was found to be 330 °C.

As to `CCOC(=O)C(=CNNc1c(Cl)cc(C(F)(F)F)cc1Cl)C(C)=O`, the melting point lay in the range of 75 to 76 °C.

In turn, `C#Cc1ccc(NC(=O)N[C@H](CCC)C(=O)Nc2ccc(N3CCOCC3=O)cc2)cc1` registered a melting point of 182 °C.

Consider `COc1ccccc1C1OC2(CCNCC2)N2CCCCC12` (centres undefined), for which the melting point lay in the range of 185 to 186 °C.

In the case of `O=C(O)c1cn(C2CC2)c2c(F)c(N3CCC3)c(F)cc2c1=O`, the melting point lay within 289 to 293 °C.

Take `COc1ccc(C2CNC(=O)C2)cc1C1CCCC1` (centres undefined): the melting point was found to be 139 °C.

For `O=C1c2c(ccc(O)c2O)CC1C(=O)c1c(F)c(F)c(F)c(F)c1F` (centres undefined), the melting point fell in the range of 114 to 115 °C.

Consider `O=c1ccc(Oc2ccc([N+](=O)[O-])cc2)c[nH]1`, for which the melting point fell in the range of 214 to 217 °C.

In turn, `CC(C)(C)CNc1cc(Cl)nc(N2CCCC2)n1` showed a melting point of 130 to 135 °C.

Take `O=P(O)(O)C(O)(CCc1ccc(Cl)c(Cl)c1)P(=O)(O)O`: the melting point came to 187 °C.

In the case of `COc1ccc(CNc2ccc(C(=O)O)cc2)cc1`, the melting point was 208 to 210 °C.

`COC(=O)n1nc2nc3n(c(=O)c2c1N)CCS3` returned a melting point of 200 to 203 °C.

`CCOC(=O)n1c(=O)n(CCCl)c2cc(OC)ccc21` displayed a melting point of 116 to 118 °C.

Take `CCc1cc(C#N)cc(C(=O)Nc2ccn(C)n2)n1`: the melting point turned out to be 164 °C.

`O=C(c1ccc(Cl)cc1)c1cccc(O)c1`: the melting point amounted to 154 °C.

On to `COc1ccc(C2NC(C(=O)O)C(C)(C)S2)c(C(=O)O)c1OC` (centres undefined), for which the melting point was in the range of 90 to 91 °C.

The compound `NC(=O)c1cnn2c(-c3cccc(F)c3)ccnc12` returned a melting point of 247 to 249 °C.

The compound `Cc1ccc(N2CCN(CCCc3ccc(C4CCC(=O)N4)cc3)CC2)cc1` (centres undefined) gave a melting point of 143 to 145 °C.

The compound `CC(=O)Nc1cccc2c1CCC(NC(C)c1ccccc1)C2` (centres undefined) yielded a melting point of 158 °C.

In turn, `CSC(SC)=C(C#N)C(=O)N(C)C` came in with a melting point of 45 to 46 °C.

In turn, `c1ccc2c(c1)[nH]c1c2ccc2cc[nH]c21` came in with a melting point of 295 °C.

The compound `Cc1nnc2n1-c1ccc(I)cc1C(c1ccccc1Cl)=NC2` yielded a melting point of 290 to 292 °C.

Turning to `O=CC1C(c2ccc(F)cc2)CCC12C=Cc1ccccc12` (centres undefined), the melting point was 115 to 118 °C.

Turning to `CSc1ccc(C(=O)NN=C2C(=O)Nc3ccc(I)cc32)cc1`, the melting point amounted to 298 °C.

Consider `O=C1c2ccccc2C(=O)N1c1ccccc1CSc1nccn1-c1ccncc1`, for which the melting point lay within 145 to 147 °C.

As for `CNc1cc(Oc2ccc3ncccc3c2)ncn1`, the melting point worked out at 173 °C.

Turning to `CN(C(=O)N(C)c1ccc(C(=O)O)cc1)c1ccc(C(=O)O)cc1`, the melting point lay within 291 to 292 °C.

`CCCCCCCCCCC=Cc1cnn(C(C(=O)Nc2c(OC)cc(OC)cc2OC)c2ccccc2)c1` (centres undefined) returned a melting point of 82 to 85 °C.

`COc1ccc(-c2sc3c(c2CBr)c(=O)c(C(C)=O)cn3Cc2ccccc2F)cc1` gave a melting point of 226 to 228 °C.

Regarding `Cc1sc2c(c1C)C(C1CCCCC1)=NCC(=O)N2`, the melting point was found to be 205 °C.

`COc1nc(OC)c(C(C)C)c(C(=O)c2cc(C)cc(C=O)c2)n1`: the melting point lay within 111 to 113 °C.

In turn, `COc1ccc(-c2noc(CC(=O)O)c2-c2ccc(OC)cc2)cc1` gave a melting point of 142 to 143 °C.

`CCOC(=O)c1ccn2nccc2n1` came in with a melting point of 114 to 115 °C.

For the compound `CC1(c2ccc([N+](=O)[O-])cc2)C(=O)Nc2cc(Cl)ccc2C1=O` (centres undefined), the melting point fell in the range of 209 to 210 °C.

Regarding `CCCCN(C)C(=O)CS(=O)CCCCCOc1ccc(C2=C(c3ccccc3)CCCc3ccccc32)cc1` (centres undefined), the melting point is 120 to 121 °C.

Consider `O=C(O)CN1C(=O)C(=CC=Cc2ccccc2Br)SC1=S`, for which the melting point is 241 to 244 °C.

In the case of `CC(C)(C)c1cc2ncnn2nc1OCCN1CCC(OC(c2ccccc2)c2ccccc2)CC1`, the melting point lay within 133 to 135 °C.

`CC(C)(CO)NS(=O)(=O)c1cc(NC(=O)c2cnn3c(C(F)(F)F)cc(-c4ccc(C(F)(F)F)cc4)nc23)c(Cl)s1` came in with a melting point of 223 °C.

For the compound `CCOC(=O)C(Sc1ccc(O)cc1)c1ccc(-c2cccs2)cc1` (centres undefined), the melting point is 103 °C.

`O=[N+]([O-])c1ccccc1N1CCN(CC(O)COc2cccc3c2CCCC3)CC1` (centres undefined): the melting point lay within 186 to 187 °C.

Consider `COc1ccc(C(=O)Nc2ccccc2)cc1NCc1ccccc1C`, for which the melting point lay within 167 to 169 °C.

`c1cc2cc(Nc3ncnc4cnc(N5CCOCC5)nc34)ccc2cn1` gave a melting point of 208 to 210 °C.

In turn, `CCOC(=O)c1cn(-c2nc(NC(C)(C)C)c(F)cc2F)c2c(Cl)c(F)c(F)cc2c1=O` gave a melting point of 203 to 205 °C.

`CCCn1nc(C(C)C)c(C(=O)OCOC(=O)C(C)(C)C)c1Cc1ccc(-c2ccccc2-c2nnn(C(c3ccccc3)(c3ccccc3)c3ccccc3)n2)cc1` yielded a melting point of 128 to 130 °C.

`Cn1c(C#N)ccc1[N+](=O)[O-]` came in with a melting point of 86 to 87 °C.
